# What was measured:
# [1] = Accelerated stability of Cmpd. A in solvents at 50° C.; type: physicochemical
# Source text: An important aspect of the invention is to provide a multiple-use container comprising a topical composition of the invention, from which accurate single dose aliquots of the long lasting topical formulations may be administered. The formulation must remain stable with repetitive exposure to the outside environment, particularly oxygen and water. This embodiment may be particularly useful with the very long lasting formulations of the invention that require administration to an animal infrequently, such as once every 3-6 months, or similar. Some solvents such as ethers (including DMI, Transcutol® and the like) give rise to peroxides, which then yield ketones and aldehydes that may be further degraded to acids. The presence of acids may contribute to the degradation of acid hydrolysis-susceptible molecules, including isoxazoline active agents. Thus, formulation stability is particularly important for the multi-dose container application, where the formulations can be exposed to oxygen and water during multiple rounds of opening and closing. […]
# Haematobia irritans = experiment: Pour-on efficacy against Haematobia irritans (horn fly) in cattle (Example 14); type: in vivo; conditions: for % Reduction: Group 2: pour-on 10% in DES, 1 ml/10 kg
# Description: The efficacy of a pour-on formulation of the invention comprising isoxazoline Compound A was tested and compared with an untreated control. Two healthy, female Angus crossbread cattle of one year of age weighing between 224 to 330 kg were used in each study group. Cattle in Group 1 were untreated (control) and cattle in Group 2 were treated with a pour-on formulation comprising Compound A at a concentration of 10% (w/v) in DES at a dose of 1 ml/10 kg once on Day 0. The formulation was applied by measuring the required amount of the solution into a marked disposable syringe and applying the material evenly along the mid-line of the back of each animal from the withers to the tail head. Each animal was infested with approximately 200 horn flies released into each of the animal rooms on Day 1, approximately 24 hours post treatment. Approximately 200 horn flies were released again on Days 7, 14, 21, 28 and 36. Horn fly counts were performed at 5 hours and 24 hours after each infestation. Tables 14A and 14B below show the efficacy of the pour-on formulation of the invention.
# R. sanguineus = experiment: Efficacious plasma concentration (EC90) against R. sanguineus ticks in dogs (Example 13); type: in vivo, Rhipicephalus sanguineus; conditions: for EC90 (concentration required to achieve 90% efficacy): plasma concentration
# Ctenocephalides felis = experiment: Spot-on efficacy at 1 mg/kg against Ctenocephalides felis fleas in cats (Example 7); type: in vivo; conditions: for efficacy against fleas: Group 2 (DMI)
# Description: The efficacy of several spot-on formulations comprising Cmpd. A dosed at 1 mg/kg body weight in different carrier vehicles against fleas in cats was studied. Five cats each were allocated to 6 Treatment Groups. The […] per study group were subjected to weekly infestations followed by 24 h flea counts for 5 to 8 weeks, according to the following Group allocations: Group 1—untreated control; Group 2-1.0% (w/v) Cmpd. A in DMI; Group 3-1.0% (w/v) Cmpd. A in diethyl sebacate (DES); Group 4-1.0% (w/v) Cmpd. A in 9% lauryl lactate+DES; Group 5—1% (w/v) Cmpd. A in 8% ethyl oleate+DES; and Group 6-1% (w/v) Cmpd. A in a vehicle comprising Transcutol®+10% (w/v) ethanol+5% polyvinylpyrrolidone+5% TWEEN 80. Cats were infested with approximately 100 C. felis on Day −1 and treated on Day 0 with the corresponding spot-on formulation by application of the formulation directly on the skin in the midline of the neck, between the base of the skull and the shoulder blades in a single spot using a 1 mL syringe. Twelve hours after treatment, fleas were removed and counted. The cats were immediately re-infested with approximately 100 fleas. Fleas were removed and counted on Day 1 at approximately 24 hours post-treatment. Cats were also infested with fleas on Days 7, 21, […], 35, 42 and 49. Fleas were removed and counted approximately 24 hours after infestation on Days 8, 22, 29, 36, 43 and 50.
structure (smiles),measurement,setting,value
"O=C(CNC(=O)c1ccc(C2=NOC(c3cc(Cl)cc(C(F)(F)F)c3)(C(F)(F)F)C2)c2ccccc12)NCC(F)(F)F (stereo not shown) [Compound A, 4-[5-[3-chloro-5-(trifluoromethyl)phenyl]-4,5-dihydro-5-(trifluoromethyl)-3-isoxazolyl]-N-[2-oxo-2-[(2,2,2-trifluoroethyl)amino]ethyl]-1-naphthalanecarboxamide]","change in assay, accelerated stability study","[1]; 12% (w/v) solution in DMI, eleven week, 50° C., clear glass containers",no significant change in assay
same,stability in solvents,"[1]; DES, DIPA, DMI, triacetin, GF and propylene carbonate, 50° C. in glass bottles",stable
same,Efficacy against horn flies,Haematobia irritans; 24 hours after infestation through the end of the study (day 36),at least 90%
same,% Reduction,Haematobia irritans; Day 1 (5 h),81.2%
same,% Reduction,Haematobia irritans; Day 2 (24 h),99.6%
same,% Reduction,Haematobia irritans; Day 7 (5 h),84.2%
same,% Reduction,Haematobia irritans; Day 8 (24 h),99.7%
same,% Reduction,Haematobia irritans; Day 14 (5 h),89.5%
same,% Reduction,Haematobia irritans; Day 15 (24 h),99.2%
same,% Reduction,Haematobia irritans; Day 21 (5 h),67.6%
same,% Reduction,Haematobia irritans; Day 22 (24 h),97.4%
same,% Reduction,Haematobia irritans; Day 28 (5 h),11.7%
same,% Reduction,Haematobia irritans; Day 29 (24 h),90.4%
same,"concentration required to achieve 90% efficacy, lower than the concentration required from oral administration","R. sanguineus; dogs, topical vs oral",~32%
same,EC90 (concentration required to achieve 90% efficacy),R. sanguineus; oral dosage form,0.101 µg/mL
same,EC90 (concentration required to achieve 90% efficacy),"R. sanguineus; topical, separate study",0.069 µg/mL
same,efficacy against fleas,Ctenocephalides felis; until Day 50,above 85%
same,efficacy against fleas,Ctenocephalides felis; until at least Day 43,above 90%
same,% Reduction,"Ctenocephalides felis; Group 2: 1.0% in DMI, 1 mg/kg, Day 0 (12 hr)",22.3%
same,% Reduction,"Ctenocephalides felis; Group 2: 1.0% in DMI, 1 mg/kg, Day 1",28.0%
same,% Reduction,"Ctenocephalides felis; Group 2: 1.0% in DMI, 1 mg/kg, Day 8",99.3%
same,% Reduction,"Ctenocephalides felis; Group 2: 1.0% in DMI, 1 mg/kg, Day 22",99.5%
same,% Reduction,"Ctenocephalides felis; Group 2: 1.0% in DMI, 1 mg/kg, Day 29",98.5%
same,% Reduction,"Ctenocephalides felis; Group 2: 1.0% in DMI, 1 mg/kg, Day 36",94.2%
same,% Reduction,"Ctenocephalides felis; Group 2: 1.0% in DMI, 1 mg/kg, Day 43",94.3%
same,% Reduction,"Ctenocephalides felis; Group 2: 1.0% in DMI, 1 mg/kg, Day 50",87.7%
same,% Reduction,"Ctenocephalides felis; Group 3: 1.0% in DES, 1 mg/kg, Day 0 (12 hr)",9.6%
same,% Reduction,"Ctenocephalides felis; Group 3: 1.0% in DES, 1 mg/kg, Day 1",72.7%
same,% Reduction,"Ctenocephalides felis; Group 3: 1.0% in DES, 1 mg/kg, Day 8",99.7%
same,% Reduction,"Ctenocephalides felis; Group 3: 1.0% in DES, 1 mg/kg, Day 22",97.4%
same,% Reduction,"Ctenocephalides felis; Group 3: 1.0% in DES, 1 mg/kg, Day 29",95.1%
same,% Reduction,"Ctenocephalides felis; Group 3: 1.0% in DES, 1 mg/kg, Day 36",79.3%
same,% Reduction,"Ctenocephalides felis; Group 3: 1.0% in DES, 1 mg/kg, Day 43",72.2%
same,% Reduction,"Ctenocephalides felis; Group 3: 1.0% in DES, 1 mg/kg, Day 50",44.8%
same,% Reduction,"Ctenocephalides felis; Group 4: 1.0% in 9% lauryl lactate+DES, 1 mg/kg, Day 0 (12 hr)",9.2%
same,% Reduction,"Ctenocephalides felis; Group 4: 1.0% in 9% lauryl lactate+DES, 1 mg/kg, Day 1",36.5%
same,% Reduction,"Ctenocephalides felis; Group 4: 1.0% in 9% lauryl lactate+DES, 1 mg/kg, Day 8",99.7%
same,% Reduction,"Ctenocephalides felis; Group 4: 1.0% in 9% lauryl lactate+DES, 1 mg/kg, Day 22",98.5%
same,% Reduction,"Ctenocephalides felis; Group 4: 1.0% in 9% lauryl lactate+DES, 1 mg/kg, Day 29",98.1%
same,% Reduction,"Ctenocephalides felis; Group 4: 1.0% in 9% lauryl lactate+DES, 1 mg/kg, Day 36",89.3%
same,% Reduction,"Ctenocephalides felis; Group 4: 1.0% in 9% lauryl lactate+DES, 1 mg/kg, Day 43",92.7%
same,% Reduction,"Ctenocephalides felis; Group 4: 1.0% in 9% lauryl lactate+DES, 1 mg/kg, Day 50",79.2%
same,% Reduction,"Ctenocephalides felis; Group 5: 1% in 8% ethyl oleate+DES, 1 mg/kg, Day 0 (12 hr)",65.9%
same,% Reduction,"Ctenocephalides felis; Group 5: 1% in 8% ethyl oleate+DES, 1 mg/kg, Day 1",77.2%
same,% Reduction,"Ctenocephalides felis; Group 5: 1% in 8% ethyl oleate+DES, 1 mg/kg, Day 8",98.4%
same,% Reduction,"Ctenocephalides felis; Group 5: 1% in 8% ethyl oleate+DES, 1 mg/kg, Day 22",96.9%
same,% Reduction,"Ctenocephalides felis; Group 5: 1% in 8% ethyl oleate+DES, 1 mg/kg, Day 29",95.0%
same,% Reduction,"Ctenocephalides felis; Group 5: 1% in 8% ethyl oleate+DES, 1 mg/kg, Day 36",85.5%
same,% Reduction,"Ctenocephalides felis; Group 5: 1% in 8% ethyl oleate+DES, 1 mg/kg, Day 43",79.7%
same,% Reduction,"Ctenocephalides felis; Group 5: 1% in 8% ethyl oleate+DES, 1 mg/kg, Day 50",64.0%
same,% Reduction,"Ctenocephalides felis; Group 6: 1% in Transcutol+10% ethanol+5% polyvinylpyrrolidone+5% TWEEN 80, 1 mg/kg, Day 0 (12 hr)",17.7%
same,% Reduction,"Ctenocephalides felis; Group 6: 1% in Transcutol+10% ethanol+5% polyvinylpyrrolidone+5% TWEEN 80, 1 mg/kg, Day 1",75.6%
same,% Reduction,"Ctenocephalides felis; Group 6: 1% in Transcutol+10% ethanol+5% polyvinylpyrrolidone+5% TWEEN 80, 1 mg/kg, Day 8",100.0%
same,% Reduction,"Ctenocephalides felis; Group 6: 1% in Transcutol+10% ethanol+5% polyvinylpyrrolidone+5% TWEEN 80, 1 mg/kg, Day 22",99.3%
same,% Reduction,"Ctenocephalides felis; Group 6: 1% in Transcutol+10% ethanol+5% polyvinylpyrrolidone+5% TWEEN 80, 1 mg/kg, Day 29",97.5%
same,% Reduction,"Ctenocephalides felis; Group 6: 1% in Transcutol+10% ethanol+5% polyvinylpyrrolidone+5% TWEEN 80, 1 mg/kg, Day 36",93.8%
same,% Reduction,"Ctenocephalides felis; Group 6: 1% in Transcutol+10% ethanol+5% polyvinylpyrrolidone+5% TWEEN 80, 1 mg/kg, Day 43",93.9%
same,% Reduction,"Ctenocephalides felis; Group 6: 1% in Transcutol+10% ethanol+5% polyvinylpyrrolidone+5% TWEEN 80, 1 mg/kg, Day 50",79.6%

# — US11464763B2, “Parasiticidal compositions comprising an isoxazoline active agent, methods and uses thereof” (BOEHRINGER INGELHEIM ANIMAL HEALTH USA INC., priority 2011, dated 2022)
